Measurements published in ChEMBL document CHEMBL3046832, “Synthesis of some sulfonamides, disubstituted sulfonylureas or thioureas and some structurally related variants. A class of promising antitumor agents” (2007).

Assays:
Type in all cases: functional
MDA-MB-435 = test: Cytotoxicity against Homo sapiens (human) MDA-MB-435 cells after 48 hr by SRB assay; conditions: MDA-MB-435, 48 h
M14 = test: Cytotoxicity against Homo sapiens (human) M14 cells after 48 hr by SRB assay; conditions: M14, 48 h
LOX IMVI = test: Cytotoxicity against Homo sapiens (human) LOXIMVI cells after 48 hr by SRB assay
U-251 = test: Cytotoxicity against Homo sapiens (human) U251 cells after 48 hr by SRB assay; conditions: U-251, 48 h
SNB-75 = test: Cytotoxicity against Homo sapiens (human) SNB75 cells after 48 hr by SRB assay; conditions: SNB-75, 48 h
Hs-578T = test: Cytotoxicity against Homo sapiens (human) Hs578T cells after 48 hr by SRB assay
MCF7 [1] = test: Cytotoxicity against Homo sapiens (human) MCF7 cells after 48 hr by SRB assay; conditions: MCF7, 48 h
MDA-MB-231 = test: Cytotoxicity against Homo sapiens (human) MDA-MB-231 cells after 48 hr by SRB assay; conditions: MDA-MB-231, 48 h
DU-145 = test: Cytotoxicity against Homo sapiens (human) DU145 cells after 48 hr by SRB assay; conditions: DU-145, 48 h
UO-31 = test: Cytotoxicity against Homo sapiens (human) UO31 cells after 48 hr by SRB assay; conditions: UO-31, 48 h
CAKI-1 = test: Cytotoxicity against Homo sapiens (human) Caki1 cells after 48 hr by SRB assay; conditions: CAKI-1, 48 h
ACHN = test: Cytotoxicity against Homo sapiens (human) ACHN cells after 48 hr by SRB assay
786-0 = test: Cytotoxicity against Homo sapiens (human) 786-0 cells after 48 hr by SRB assay; conditions: 786-0, 48 h
OVCAR-8 = test: Cytotoxicity against Homo sapiens (human) OVCAR8 cells after 48 hr by SRB assay; conditions: OVCAR-8, 48 h
OVCAR-5 = test: Cytotoxicity against Homo sapiens (human) OVCAR5 cells after 48 hr by SRB assay; conditions: OVCAR-5, 48 h
OVCAR-4 = test: Cytotoxicity against Homo sapiens (human) OVCAR4 cells after 48 hr by SRB assay; conditions: OVCAR-4, 48 h
IGROV-1 = test: Cytotoxicity against Homo sapiens (human) IGROV1 cells after 48 hr by SRB assay; conditions: IGROV-1, 48 h
OVCAR-3 = test: Cytotoxicity against Homo sapiens (human) OVCAR3 cells after 48 hr by SRB assay; conditions: OVCAR-3, 48 h
UACC-62 = test: Cytotoxicity against Homo sapiens (human) UACC62 cells after 48 hr by SRB assay; conditions: UACC-62, 48 h
UACC-257 = test: Cytotoxicity against Homo sapiens (human) UACC257 cells after 48 hr by SRB assay; conditions: UACC-257, 48 h
SK-MEL-5 = test: Cytotoxicity against Homo sapiens (human) SK-MEL-5 cells after 48 hr by SRB assay; conditions: SK-MEL-5, 48 h
[2] = Cytotoxicity against Homo sapiens (human) breast cancer cells after 48 hr by SRB assay; conditions: Cancer cell lines
[3] = Cytotoxicity against Homo sapiens (human) melanoma cells after 48 hr by SRB assay; conditions: Melanoma cell
[4] = Cytotoxicity against Homo sapiens (human) CNS cancer cells after 48 hr by SRB assay; conditions: Cancer cell lines
[5] = Cytotoxicity against Homo sapiens (human) colon cancer cells after 48 hr by SRB assay; conditions: Cancer cell lines
[6] = Cytotoxicity against Homo sapiens (human) non-small cell lung cancer cells after 48 hr by SRB assay; conditions: Cancer cell lines
NCI-H460 = test: Cytotoxicity against Homo sapiens (human) NCI-H460 cells assessed as cellular growth after 48 hr by Alamar blue assay; parameters: concentration or dose not given beside the values
[7] = Cytotoxicity against Homo sapiens (human) leukemia cells after 48 hr by SRB assay; conditions: Leukemia cell
T47D = test: Cytotoxicity against Homo sapiens (human) T47D cells after 48 hr by SRB assay
SF-539 = test: Cytotoxicity against Homo sapiens (human) SF539 cells after 48 hr by SRB assay; conditions: SF-539, 48 h
SF-295 = test: Cytotoxicity against Homo sapiens (human) SF295 cells after 48 hr by SRB assay; conditions: SF-295, 48 h
SF-268 = test: Cytotoxicity against Homo sapiens (human) SF268 cells after 48 hr by SRB assay; conditions: SF-268, 48 h
HCT-15 = test: Cytotoxicity against Homo sapiens (human) HCT15 cells after 48 hr by SRB assay; conditions: HCT-15, 48 h
HT-29 = test: Cytotoxicity against Homo sapiens (human) HT-29 cells after 48 hr by SRB assay; conditions: HT-29, 48 h
HCC 2998 = test: Cytotoxicity against Homo sapiens (human) HCC2998 cells after 48 hr by SRB assay; conditions: HCC 2998, 48 h
NCI-H522 = test: Cytotoxicity against Homo sapiens (human) NCI-H522 cells after 48 hr by SRB assay; conditions: NCI-H522, 48 h
COLO 205 = test: Cytotoxicity against Homo sapiens (human) COLO205 cells after 48 hr by SRB assay; conditions: COLO 205, 48 h
NCI-H23 = test: Cytotoxicity against Homo sapiens (human) NCI-H23 cells after 48 hr by SRB assay; conditions: NCI-H23, 48 h
[8] = Cytotoxicity against Homo sapiens (human) NCI-H322 cells after 48 hr by SRB assay; conditions: NCI-H322, 48 h
EKVX = test: Cytotoxicity against Homo sapiens (human) EKVX cells after 48 hr by SRB assay
HOP-62 = test: Cytotoxicity against Homo sapiens (human) HOP62 cells after 48 hr by SRB assay; conditions: HOP-62, 48 h
A549 = test: Cytotoxicity against Homo sapiens (human) A549 cells after 48 hr by SRB assay; conditions: A549, 48 h
MOLT-4 = test: Cytotoxicity against Homo sapiens (human) MOLT4 cells after 48 hr by SRB assay; conditions: MOLT-4, 48 h
CCRF-CEM = test: Cytotoxicity against Homo sapiens (human) CCRF-CEM cells after 48 hr by SRB assay
MCF7 [9] = test: Cytotoxicity against Homo sapiens (human) MCF7 cells assessed as cellular growth after 48 hr by Alamar blue assay; parameters: concentration or dose not given beside the values

With `O=C1CCS/C(=N\S(=O)(=O)c2ccc(N3N=C4c5ccccc5CC4C3c3cccs3)cc2)N1c1ccccc1` (stereo unspecified) the GI50 (MDA-MB-435) was 38.7 µM, the GI50 (M14) was 15.3 µM and the GI50 (LOX IMVI) was 13.6 µM. The GI50 (U-251) was 14.4 µM, the GI50 (SNB-75) was 30.2 µM and the GI50 (Hs-578T) was 60.6 µM. For the same compound, the GI50 (MCF7 [1]) was 29.1 µM, the GI50 (MDA-MB-231) was 52.1 µM and the GI50 (DU-145) was > 100 µM. The GI50 (UO-31) was > 100 µM, the GI50 (CAKI-1) was 73 µM and the GI50 (ACHN) was 42.5 µM. The GI50 (786-0) was 64.2 µM, the GI50 (OVCAR-8) was 19.2 µM and the GI50 (OVCAR-5) was 22.4 µM. For the same compound, the GI50 (OVCAR-4) was 49.3 µM, the GI50 (IGROV-1) was 17.4 µM and the GI50 (OVCAR-3) was 25.9 µM. It also gave a GI50 (UACC-62) of 16.7 µM, a GI50 (UACC-257) of 24.2 µM and a GI50 (SK-MEL-5) of 14.1 µM. The GI50 [2] was 61.1 µM, the TGI [2] was 56.2 µM and the GI50 [3] was 22 µM. The TGI [3] was 33.8 µM, the GI50 [4] was 34.1 µM and the TGI [4] was 54.1 µM. It also gave a GI50 [5] of 24.1 µM, a TGI [5] of 60.7 µM and a GI50 [6] of 29.6 µM. The TGI [6] was 47.4 µM, the Activity (NCI-H460) was “<=32%” and the GI50 [7] was 48.3 µM. The TGI [7] was 93.9 µM, the GI50 (T47D) was > 100 µM and the GI50 (SF-539) was 21.8 µM. The GI50 (SF-295) was 15.8 µM, the GI50 (SF-268) was > 100 µM and the GI50 (HCT-15) was 15.9 µM. It also gave a GI50 (HT-29) of 37 µM, a GI50 (HCC 2998) of 17.9 µM and a GI50 (NCI-H522) of 15.9 µM. The GI50 (COLO 205) was 36.8 µM, the GI50 (NCI-H23) was 16.7 µM and the GI50 [8] was 12.8 µM. For the same compound, the GI50 (EKVX) was 25.7 µM, the GI50 (HOP-62) was 18.6 µM and the GI50 (A549) was 14.4 µM. The GI50 (MOLT-4) was 47 µM, the GI50 (CCRF-CEM) was 28 µM and the Activity (MCF7 [9]) was “<=32%”.
